Assay results as given in patent US11286242B2 (priority 2018, dated 2022).

How the values were obtained:
[1] = tested on: Pyricularia oryzae; assay: microbe, parasite or virus in culture; type: cell-based; details: 168 h, read-out: control compared to the untreated check
[2] = tested on: Colletotrichum capsici; assay: Colletotrichum capsici (anthracnose) radial mycelial growth on Potato Dextrose Agar; type: cell-based; details: Colletotrichum truncatum, 168 h, 25° C., 60% relative humidity, seven days, read-out: control compared to the untreated check
Method: Example 5: Colletotrichum capsici (Anthracnose)
(§1) Compounds were dissolved in 0.3% DMSO & then added to Potato Dextrose Agar medium just prior to dispensing it into petri dishes. 5 mL medium with compound in the desired concentration was dispensed into 60 mm sterile petri-plates. After solidification, each plate was seeded with 5 mm size mycelial disc taken form periphery of actively growing virulent culture plate. Plates were incubated in growth chambers at 25° C. temperature and 60% relative humidity for seven days and radial growth was measured.

[3] = tested on: Botrytis cinerea; assay: Botrytis cinerea (gray mold) radial mycelial growth on Potato Dextrose Agar; type: cell-based; details: 168 h, 22° C., 90% relative humidity, seven days, read-out: control compared to the untreated check
Method: Example 3: Botrytis cinerea (Gray Mold)
as §1, with “22°” for “25°”, “90%” for “60%”

[4] = tested on: Alternaria solani; assay: Alternaria solani (early blight of tomato/potato) radial mycelial growth on Potato Dextrose Agar; type: cell-based; details: 168 h, Potato Dextrose Agar, 25° C., 60% relative humidity, seven days, read-out: control compared to the untreated check
Method: Example 4: Alternaria solani (Early Blight of Tomato/Potato)
as §1, with “solidification” for “solidification,”

[5] = tested on: Phakopsora pachyrhizi; assay: Phakopsora pachyrhizi test in soybean, preventive spray; type: in vivo; details: preventive spray on soybean plants, inoculated one day after treatment, greenhouse 25° C., 90% relative humidity, read-out: control (efficacy, disease severity rating) compared to the untreated check
Method: Example 8: Phakopsora pachyrhizi Test in Soybean
Compounds were dissolved in 2% DMSO/Acetone & then mixed with water to the calibrated spray volume of 50 mL and poured into the spray bottles for further applications.
To test the preventive activity of compounds, healthy young soybean plants raised in the greenhouse were sprayed with active compound preparation at the stated application rates inside the spray cabinets using hallowcone nozzles. One day after treatment, the plants were inoculated with spore suspension containing 2.1×10^6 Phakopsora pachyrhizi inoculum. The inoculated plants were then kept in greenhouse chamber at 25° C. temperature & 90% relative humidity for disease expression.
A visual assessment of compound's performance was carried out by rating the disease severity (0-100% scale) on treated plants on 3, 7, 10 & 15 days after application. Efficacy (% control) of the compounds was calculated by comparing the disease rating in the treatment with the one of the untreated control. The sprayed plants were also assessed for compound's plant compatibility by recording symptoms like necrosis, chlorosis & stunting.

SMILES	inhibition of growth at 300 ppm [1] [%]	inhibition of growth at 300 ppm [2] [%]	inhibition of growth at 300 ppm [3] [%]	inhibition of growth at 300 ppm [4] [%]	pest or weed control at 500 ppm [5] [%]
CS(=O)(=NC(=O)C1CC1)c1ccc(-c2noc(C(F)(F)F)n2)cc1 (centres unmarked) [Compound 181, N-(methyl(oxo)(4-(5-(trifluoromethyl)-1,2,4-oxadiazol-3-yl)phenyl)-λ^6-sulfaneylidene)cyclopropanecarboxamide]	> 70	> 70			
COc1ccc(S(C)(=O)=NCc2cccc(-c3noc(C(F)(F)F)n3)c2)c(OC)c1 (centres unmarked) [Compound 140, (2,4-dimethoxyphenyl)(methyl)((3-(5-(trifluoromethyl)-1,2,4-oxadiazol-3-yl)benzyl)imino)-sulfanone]			> 70		
Cc1csc(S(C)(=O)=Nc2ccc(-c3noc(C(F)(F)F)n3)cc2)n1 (centres unmarked) [Compound 117, methyl(4-methylthiazol-2-yl)((4-(5-(trifluoromethyl)-1,2,4-oxadiazol-3-yl)phenyl)imino)-λ^6-sulfanone]	> 70			> 70	
CS(=O)(Cc1ccccn1)=NC(=O)c1ccc(-c2noc(C(F)(F)F)n2)cc1 (centres unmarked) [Compound 52, N-(methyl(oxo)(pyridin-2-ylmethyl)-λ^6-sulfaneylidene)-4-(5-(trifluoromethyl)-1,2,4-oxadiazol-3-yl)benzamide]				> 70	> 90
CS(=O)(Cc1ccc(C#N)cc1)=NC(=O)c1cccc(-c2noc(C(F)(F)F)n2)c1 (centres unmarked) [Compound 75, N-((4-cyanobenzyl)(methyl)(oxo)-λ^6-sulfaneylidene)-3-(5-(trifluoromethyl)-1,2,4-oxadiazol-3-yl)benzamide]				> 70	> 90
Cc1ccc(S(C)(=O)=NCc2ccc(-c3noc(C(F)(F)F)n3)cc2)cc1 (centres unmarked) [Compound 137, methyl(p-tolyl)((4-(5-(trifluoromethyl)-1,2,4-oxadiazol-3-yl)benzyl)imino)-λ^6-sulfanone]	> 70			> 70	
CS(=O)(=NCc1cccc(-c2noc(C(F)(F)F)n2)c1)c1ccccc1F (centres unmarked) [Compound 148, (2-fluorophenyl)(methyl)((3-(5-(trifluoromethyl)-1,2,4-oxadiazol-3-yl)benzyl)imino)-λ^6-sulfanone]	> 70			> 70	
COc1ccc(S(C)(=O)=Nc2ccc(-c3noc(C(F)(F)F)n3)cc2)c(OC)c1 (centres unmarked) [Compound 96, (2,4-dimethoxyphenyl)(methyl)((4-(5-(trifluoromethyl)-1,2,4-oxadiazol-3-yl)phenyl)imino)-λ^6-sulfanone]	> 70			> 70	> 90
Cc1ccc(S(=O)(=O)NC(=O)c2ccc(-c3noc(C(F)(F)F)n3)cc2)cc1 [Compound 153, N-tosyl-4-(5-(trifluoromethyl)-1,2,4-oxadiazol-3-yl)benzamide]			> 70		
COc1ccc(S(C)(=O)=Nc2ccc(-c3noc(C(F)(F)F)n3)cc2)cc1 (centres unmarked) [Compound 20, (4-methoxyphenyl)(methyl)((4-(5-(trifluoromethyl)-1,2,4-oxadiazol-3-yl)phenyl)imino)-λ^6-sulfanone]	> 70			> 70	> 90
COc1ccc(S(C)(=O)=NC(=O)c2cccc(-c3noc(C(F)(F)F)n3)c2)cc1 (centres unmarked) [Compound 71, N-((4-methoxyphenyl)(methyl)(oxo)-λ^6-sulfaneylidene)-3-(5-(trifluoromethyl)-1,2,4-oxadiazol-3-yl)benzamide]				> 70	> 90
COc1ccc(S(C)(=O)=Nc2ccc(-c3noc(C(F)(F)F)n3)nc2)cc1 (centres unmarked) [Compound 108, (4-methoxyphenyl)(methyl)((6-(5-(trifluoromethyl)-1,2,4-oxadiazol-3-yl)pyridin-3-yl)imino)-λ^6-sulfanone]			> 70	> 70	> 90
CS(=O)(=Nc1ccc(-c2noc(C(F)(F)F)n2)cc1)c1cccc(F)c1 (centres unmarked) [Compound 14, (3-fluorophenyl)(methyl)((4-(5-(trifluoromethyl)-1,2,4-oxadiazol-3-yl)phenyl)imino)-λ^6-sulfanone]	> 70		> 70	> 70	> 90
CS(=O)(=NC(=O)c1ccc(-c2noc(C(F)(F)F)n2)cc1)c1nccs1 (centres unmarked) [Compound 48, N-(methyl(oxo)(thiazol-2-yl)-λ^6-sulfaneylidene)-4-(5-(trifluoromethyl)-1,2,4-oxadiazol-3-yl)benzamide]			> 70	> 70	> 90
CS(=O)(=Nc1ccc(-c2noc(C(F)(F)F)n2)nc1)c1ccccc1 (centres unmarked) [Compound 109, methyl(phenyl)((6-(5-(trifluoromethyl)-1,2,4-oxadiazol-3-yl)pyridin-3-yl)imino)-λ^6-sulfanone]			> 70	> 70	> 90
CS(=O)(Cc1ccc(Cl)c(F)c1)=Nc1ccc(-c2noc(C(F)(F)F)n2)cc1 (centres unmarked) [Compound 99, (4-chloro-3-florobenzyl)(methyl)((4-(5-(trifluoromethyl)-1,2,4-oxadiazol-3-yl)phenyl)imino)-λ^6-sulfanone]				> 70	> 90
CS(=O)(=NC(=O)c1cccc(-c2noc(C(F)(F)F)n2)c1)c1nccs1 (centres unmarked) [Compound 73, N-(methyl(oxo)(thiazol-2-yl)-λ^6-sulfaneylidene)-3-(5-(trifluoromethyl)-1,2,4-oxadiazol-3-yl)benzamide]				> 70	
CS(=O)(=NCc1cccc(-c2noc(C(F)(F)F)n2)c1)c1ccccc1 (centres unmarked) [Compound 138, methyl(phenyl)((3-(5-(trifluoromethyl)-1,2,4-oxadiazol-3-yl)benzyl)imino)-λ^6-sulfanone]	> 70		> 70		
COc1ccc(S(=O)(=O)NC(=O)c2ccc(-c3noc(C(F)(F)F)n3)cc2)cc1 [Compound 157, N-((4-methoxyphenyl)sulfonyl)-4-(5-(trifiuoromethyl)-1,2,4-oxadiazol-3-yl)benzamide]			> 70	> 70	
CS(=O)(Cc1ccc(C(F)(F)F)cc1)=Nc1ccc(-c2noc(C(F)(F)F)n2)cc1 (centres unmarked) [Compound 90, methyl((4-(5-(trifluoromethyl)-1,2,4-oxadiazol-3-yl)phenyl)imino)(4-(trifluoromethyl)benzyl)-λ^6-sulfanone]			> 70		
CS(=O)(=NC(=O)c1ccc(-c2noc(C(F)(F)F)n2)cc1)c1ccc(F)cc1F (centres unmarked) [Compound 47, N-((2,4-difluorophenyl)(methyl)(oxo)-λ^6-sulfaneylidene)-4-(5-(trifluoromethyl)-1,2,4-oxadiazol-3-yl)benzamide]				> 70	> 90
COc1ccc(S(C)(=O)=NCc2cccc(-c3noc(C(F)(F)F)n3)c2)cc1 (centres unmarked) [Compound 139, (4-methoxyphenyl)(methyl)((3-(5-(trifluoromethyl)-1,2,4-oxadiazol-3-yl)benzyl)imino)-λ^6-sulfanone]	> 70		> 70		
CS(=O)(Cc1cc(F)ccc1F)=NC(=O)c1ccc(-c2noc(C(F)(F)F)n2)cc1 (centres unmarked) [Compound 62, N-((2,5-difluorobenzyl)(methyl)(oxo)-λ^6-sulfaneylidene)-4-(5-(trifluoromethyl)-1,2,4-oxadiazol-3-yl)benzamide]				> 70	> 90
COc1ccc(S(C)(=O)=NC(=O)c2ccc(-c3noc(C(F)(F)F)n3)cc2)c(OC)c1 (centres unmarked) [Compound 56, N-((2,4-dimethoxyphenyl)(methyl)(oxo)-λ^6-sulfaneylidene)-4-(5-(trifluoromethyl)-1,2,4-oxadiazol-3-yl)benzamide]				> 70	> 90
CS(=O)(Cc1ccncc1)=NC(=O)c1ccc(-c2noc(C(F)(F)F)n2)cc1 (centres unmarked) [Compound 59, N-(mehtyl(oxo)(pyridin-4-ylmethyl)-λ^6-sulfaneylidene)-4-(5-(trifluoromethyl)-1,2,4-oxadiazol-3-yl)benzamide]				> 70	> 90
